Read-outs that look alike come from different tables or passages of the source. Marks after values point to notes of the source that are not given here. Starred links: 1 amine or outer side, 2 acyl side, 3 side chain; linkers in the order of their positions; H or OH if unused. Non-standard residues stand in square brackets, D forms with d. Residues, ends and D or L forms follow the SMILES beside them. Groups on a side chain read outwards from the residue. *: point of attachment. C20 diacid = O=C(O)CCCCCCCCCCCCCCCCCCC(=O)*; γGlu = O=C(O)[C@H](CCC(=O)[*:2])N[*:1]; NMeI = CC[C@H](C)[C@H](NC)C(=O)O; AEEA = NCCOCCOCC(=O)O

The text below walks through data of patent publication EP4810052A2, “HCRHR2 SELECTIVE POLYPEPTIDES” (Gubra A/S, priority 2023, dated 2026).

For one test, the target named is T1, hCRHR2 (Homo sapiens, UniProt Q13324).
T1 sequence (Q13324 1-411): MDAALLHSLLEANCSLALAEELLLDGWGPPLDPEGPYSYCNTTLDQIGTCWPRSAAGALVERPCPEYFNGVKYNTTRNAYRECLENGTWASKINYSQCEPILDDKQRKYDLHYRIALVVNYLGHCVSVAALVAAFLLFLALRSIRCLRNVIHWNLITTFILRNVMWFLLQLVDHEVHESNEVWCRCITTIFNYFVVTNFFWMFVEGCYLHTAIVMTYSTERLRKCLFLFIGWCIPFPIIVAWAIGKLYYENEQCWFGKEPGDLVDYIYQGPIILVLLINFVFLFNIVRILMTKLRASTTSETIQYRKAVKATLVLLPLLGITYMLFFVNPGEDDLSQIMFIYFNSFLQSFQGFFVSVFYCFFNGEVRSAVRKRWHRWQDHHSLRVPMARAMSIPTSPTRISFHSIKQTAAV
As to the kind of experiment: HTRF cAMP assay, determination of hCRHR2 potency (peptide libraries 5 conc., purified peptides 11 conc.). Format: cell-based. A digest of the protocol:
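Read-out was HTRF competitive cAMP detection (d2-labelled cAMP, cryptate-labelled antibody) in suspended, freshly thawed CHO-K1 cells stably carrying human CRHR2.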

Test [1] in a line: Effect on acute food intake in mice. Format: in vivo. The note with it: single subcutaneous dose. A digest of the protocol:
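Male NMRI mice (n=7-8 per group) were fasted from six hours before the dark phase. They received a single subcutaneous peptide dose one hour before dark onset. Hourly food intake was monitored for 72 h and expressed as percent reduction versus vehicle, analysed by one-way ANOVA with Dunnett's test.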

A further test addresses T2, hCRHR1 (Homo sapiens, UniProt P34998).
T2 sequence (P34998 24-415): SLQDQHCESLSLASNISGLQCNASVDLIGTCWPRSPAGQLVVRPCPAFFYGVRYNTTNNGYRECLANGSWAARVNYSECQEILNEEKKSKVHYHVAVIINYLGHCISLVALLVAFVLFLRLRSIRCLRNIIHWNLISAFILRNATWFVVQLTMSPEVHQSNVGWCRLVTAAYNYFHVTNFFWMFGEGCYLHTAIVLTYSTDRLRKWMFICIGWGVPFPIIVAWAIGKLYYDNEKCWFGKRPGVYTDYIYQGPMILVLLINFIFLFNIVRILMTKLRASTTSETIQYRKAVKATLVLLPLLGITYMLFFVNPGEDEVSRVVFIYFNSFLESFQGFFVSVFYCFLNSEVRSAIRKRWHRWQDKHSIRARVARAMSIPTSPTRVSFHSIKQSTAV
Kind of test: HTRF cAMP assay, determination of hCRHR1 potency (peptide libraries 5 conc., purified peptides 11 conc.). It counts as cell-based. The method, boiled down:
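Cellular cAMP was read by time-resolved FRET between d2-labelled cAMP and cryptate anti-cAMP antibody. The cells were freshly thawed suspension CHO-K1 cells stably expressing human CRHR1.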

In the case of `CC[C@H](C)[C@H](NC)C(=O)N[C@H](C(=O)N[C@@H](CC(C)C)C(=O)N[C@@H](CO)C(=O)N[C@@H](CC(C)C)C(=O)N[C@@H](CC(=O)O)C(=O)N[C@H](C(=O)N1CCC[C@H]1C(=O)N[C@H](C(=O)NCC(=O)N[C@@H](CC(C)C)C(=O)N[C@@H](CC(C)C)C(=O)N[C@@H](CCC(N)=O)C(=O)N[C@H](C(=O)N[C@@H](CC(C)C)C(=O)N[C@@H](CC(C)C)C(=O)N[C@@H](CCC(=O)O)C(=O)N[C@@H](CCC(N)=O)C(=O)N[C@@H](C)C(=O)N[C@@H](CCCNC(=N)N)C(=O)N[C@@H](C)C(=O)N[C@@H](CCCNC(=N)N)C(=O)N[C@@H](C)C(=O)N[C@@H](C)C(=O)N[C@@H](CCCNC(=N)N)C(=O)N[C@@H](CCC(=O)O)C(=O)N[C@@H](CCC(N)=O)C(=O)N[C@@H](C)C(=O)N[C@H](C(=O)N[C@@H](CCCCNC(=O)COCCOCCNC(=O)COCCOCCNC(=O)CC[C@H](NC(=O)CC[C@H](NC(=O)CCCCCCCCCCCCCCCCCCC(=O)O)C(=O)O)C(=O)O)C(=O)N[C@@H](CC(N)=O)C(=O)N[C@@H](C)C(=O)N[C@@H](CCC(=O)O)C(=O)N[C@H](C(=O)N[C@@H](CC(C)C)C(=O)N[C@@H](C)C(=O)N[C@@H](CCC(=O)O)C(=O)N[C@H](C(N)=O)C(C)C)[C@@H](C)CC)[C@@H](C)O)[C@@H](C)CC)[C@@H](C)CC)C(C)C)C(C)C` [SEQ ID NO: 6] (H-[NMeI]VLSLDVPIGLLQILLEQARARAAREQATK([AEEA-AEEA-γGlu-γGlu-C20 diacid])NAEILAEV-NH2), the “Selectivity ratio (hCRHR1/ hCRHR2)” value on hCRHR2 (hCRHR1-EC50/hCRHR2-EC50) is reported as more than 1852. Further, the 50% effective concentration (EC50) is 2.7 nM at hCRHR2 (purified peptides, CHO-K1 cells stably expressing hCRHR2, cAMP HTRF, read-out: hCRHR2 EC50); 3 nM on hCRHR2 (stable cell system, Table 10, read-out: Stable EC50 (nM) hCRHR 2a); more than 5000 nM at hCRHR1 (purified peptides, CHO-K1 cells stably expressing hCRHR1, cAMP HTRF, read-out: hCRHR1 EC50); more than 5000 nM on hCRHR1 (stable cell system, Table 10, read-out: Stable EC50 (nM) hCRHR 1). Also, the “% FI compared to vehicle, 24 h post-dosing” value is listed as 51.61*** % in test [1] (30 nmol/kg), 25.76*** % in test [1] (100 nmol/kg) and 12.69*** % in test [1] (300 nmol/kg).
